In US9695155B2, “Herbicidal substituted pyrimidinyloxy benzene compounds” (E. I. DU PONT DE NEMOURS AND COMPANY, priority 2013, dated 2017):

What was measured:
barnyardgrass [1] = test: Test C preemergence; format: in vivo, Echinochloa crus-galli; conditions: for Barnyardgrass plant response rating: preemergence; for Plant response rating, Barnyardgrass: Preemergence, 31 g ai/ha, scale 0 to 100, 0 no effect, 100 complete control
Procedure, shortened: (§1)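 Seeds were sown in loam–sand blend and sprayed preemergence, while plants at 1- to 4-leaf stage (2–18 cm) in peat-based medium received postemergence sprays; test chemicals were formulated in a non-phytotoxic solvent with surfactant. After 13–15 days in a greenhouse, injury was rated visually against controls, 0 (no effect) to 100 (complete control).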

morningglory = test: Test C preemergence; format: in vivo, Ipomoea coccinea; conditions: for Morningglory plant response rating: preemergence; for Plant response rating, Morningglory: Preemergence, 31 g ai/ha, scale 0 to 100, 0 no effect, 100 complete control
Procedure, shortened: as §1

blackgrass [2] = test: Test C preemergence; format: in vivo, Alopecurus myosuroides; conditions: for Blackgrass plant response rating: preemergence; for Plant response rating, Blackgrass: Preemergence, 31 g ai/ha, scale 0 to 100, 0 no effect, 100 complete control
Procedure, shortened: as §1

giant foxtail = test: Test A preemergence; format: in vivo, Setaria faberii; conditions: for Plant response rating, Foxtail, Giant: 125 g ai/ha; for Foxtail, Giant plant response rating: 500 g ai/ha
Procedure, shortened: (§2)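 Visual injury scored 0–100 (100 = complete control) against untreated controls about 10 days after treatment in a greenhouse. Test chemicals, formulated with surfactant in non-phytotoxic solvent, were sprayed on soil preemergence or on 2-10 cm, one- to two-leaf plants postemergence.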

waterhemp [3] = test: Test C preemergence; format: in vivo, Amaranthus rudis; conditions: for Waterhemp plant response rating: preemergence; for Plant response rating, Waterhemp: Preemergence, 31 g ai/ha, scale 0 to 100, 0 no effect, 100 complete control
Procedure, shortened: as §1

waterhemp [4] = test: Test C postemergence; format: in vivo, Amaranthus rudis; conditions: for Plant response rating, Waterhemp: scale 0 to 100 (0 no effect, 100 complete control)
Procedure, shortened: as §1

barnyardgrass [5] = test: Test A preemergence; format: in vivo, Echinochloa crus-galli; conditions: for Plant response rating, Barnyardgrass: 125 g ai/ha; for Barnyardgrass plant response rating: 500 g ai/ha
Procedure, shortened: as §2

corn [6] = test: Test C postemergence; format: in vivo, Zea mays
Procedure, shortened: as §1

pigweed = test: Test C postemergence; format: in vivo, Amaranthus retroflexus; conditions: for Plant response rating, Pigweed: scale 0 to 100 (0 no effect, 100 complete control)
Procedure, shortened: as §1

Italian ryegrass = test: Test C postemergence; format: in vivo, Lolium multiflorum; conditions: for Plant response rating, Ryegrass, Italian: scale 0 to 100 (0 no effect, 100 complete control)
Procedure, shortened: as §1

corn [7] = test: Test C preemergence; format: in vivo, Zea mays; conditions: for Corn plant response rating: preemergence; for Plant response rating, Corn: Preemergence, 31 g ai/ha, scale 0 to 100, 0 no effect, 100 complete control
Procedure, shortened: as §1

blackgrass [8] = test: Test C postemergence; format: in vivo, Alopecurus myosuroides
Procedure, shortened: as §1

barnyardgrass [9] = test: Test C postemergence; format: in vivo, Echinochloa crus-galli
Procedure, shortened: as §1

oilseed rape = test: Test C preemergence; format: in vivo, Brassica napus; conditions: for Oilseed Rape plant response rating: preemergence; for Plant response rating, Oilseed Rape: Preemergence, 31 g ai/ha, scale 0 to 100, 0 no effect, 100 complete control
Procedure, shortened: as §1

soybean = test: Test C preemergence; format: in vivo, Glycine max; conditions: for Soybean plant response rating: preemergence; for Plant response rating, Soybean: Preemergence, 31 g ai/ha, scale 0 to 100, 0 no effect, 100 complete control
Procedure, shortened: as §1

ragweed = test: Test C preemergence; format: in vivo, Ambrosia elatior; conditions: for Ragweed plant response rating: preemergence; for Plant response rating, Ragweed: Preemergence, 31 g ai/ha, scale 0 to 100, 0 no effect, 100 complete control
Procedure, shortened: as §1

lambsquarters = test: Test C postemergence; format: in vivo, Chenopodium album; conditions: for Plant response rating, Lambsquarters: scale 0 to 100 (0 no effect, 100 complete control)
Procedure, shortened: as §1

[10] = 16 g ai/ha, scale 0 to 100 (0 no effect, 100 complete control)
[11] = 62 g ai/ha, scale 0 (no effect) to 100 (complete control)
[12] = 125 g ai/ha, scale 0 (no effect) to 100 (complete control)
[13] = 0 to 100 scale where 0 is no effect and 100 is complete control
[14] = 0 to 100 scale, 0 no effect, 100 complete control, approx. 10 days
[15] = Postemergence, 31 g ai/ha, 13 to 15 days
[16] = 16 g ai/ha, postemergence, visual rating, scale 0 to 100 (0 no effect, 100 complete control), 13 to 15 days
[17] = Postemergence, 31 g ai/ha, scale 0 to 100 (0 no effect, 100 complete control), 13 to 15 days
[18] = Postemergence, 62 g ai/ha, scale 0 to 100 (0 no effect, 100 complete control)
[19] = 16 g ai/ha, postemergence, 0 is no effect, 100 is complete control
[20] = 125 g ai/ha, postemergence, visual rating
[21] = 125 g ai/ha, postemergence, visual rating, scale 0 to 100 (0 no effect, 100 complete control)

With CCOc1cnn(-c2c(C#N)cccc2Oc2ncc(F)cn2)c1 [Compound 89] the “Barnyardgrass plant response rating” value (barnyardgrass [1]; [10]) was 5, the “Barnyardgrass plant response rating” value (barnyardgrass [1]; [11]) was 70 and the “Barnyardgrass plant response rating” value (barnyardgrass [1]; [12]) was 100. For the same compound, the “Plant response rating, Barnyardgrass” value (barnyardgrass [1]) was 35, the “Morningglory plant response rating” value (morningglory; [10]) was 45 and the “Morningglory plant response rating” value (morningglory; [11]) was 95. The “Morningglory plant response rating” value (morningglory; [12]) was 98, the “Plant response rating, Morningglory” value (morningglory) was 35 and the “Blackgrass plant response rating” value (blackgrass [2]; [10]) was 0. For the same compound, the “Blackgrass plant response rating” value (blackgrass [2]; [11]) was 5, the “Blackgrass plant response rating” value (blackgrass [2]; [12]) was 50 and the “Plant response rating, Blackgrass” value (blackgrass [2]) was 0. For the same compound, the “Plant response rating, Foxtail, Giant” value (giant foxtail; [13]) was 90, the “Foxtail, Giant plant response rating” value (giant foxtail; [14]) was 90 and the “Waterhemp plant response rating” value (waterhemp [3]; [10]) was 80. For the same compound, the “Waterhemp plant response rating” value (waterhemp [3]; [11]) was 100, the “Waterhemp plant response rating” value (waterhemp [3]; [12]) was 100 and the “Plant response rating, Waterhemp” value (waterhemp [3]) was 100. For the same compound, the “Plant response rating (0 to 100), Waterhemp” value (waterhemp [4]; 125 g ai/ha, postemergence) was 60, the “Plant response rating, Waterhemp” value (waterhemp [4]; [15]) was 40 and the “Plant response rating, Waterhemp” value (waterhemp [4]; Postemergence, 62 g ai/ha) was 30. The “Plant response rating, Barnyardgrass” value (barnyardgrass [5]; [13]) was 60, the “Barnyardgrass plant response rating” value (barnyardgrass [5]; [14]) was 90 and the “Corn plant response rating” value (corn [6]; [16]) was 5. For the same compound, the “Plant response rating (0 to 100), Corn” value (corn [6]; 125 g ai/ha, postemergence) was 5, the “Plant response rating, Corn” value (corn [6]; [17]) was 5 and the “Plant response rating, Corn” value (corn [6]; [18]) was 5. The “Plant response rating (0 to 100), Pigweed” value (pigweed; 125 g ai/ha, postemergence) was 40, the “Plant response rating, Pigweed” value (pigweed; [15]) was 35 and the “Plant response rating, Pigweed” value (pigweed; Postemergence, 62 g ai/ha) was 35. For the same compound, the “Plant response rating (0 to 100), Ryegrass, Italian” value (Italian ryegrass; 125 g ai/ha, postemergence) was 5, the “Plant response rating, Ryegrass, Italian” value (Italian ryegrass; [15]) was 0 and the “Plant response rating, Ryegrass, Italian” value (Italian ryegrass; Postemergence, 62 g ai/ha) was 5. For the same compound, the “Corn plant response rating” value (corn [7]; [10]) was 0, the “Corn plant response rating” value (corn [7]; [11]) was 0 and the “Corn plant response rating” value (corn [7]; [12]) was 5. For the same compound, the “Plant response rating, Corn” value (corn [7]) was 0, the “Blackgrass plant response rating” value (blackgrass [8]; [16]) was 0 and the “Plant response rating (0 to 100), Blackgrass” value (blackgrass [8]; 125 g ai/ha, postemergence) was 5. For the same compound, the “Plant response rating, Blackgrass” value (blackgrass [8]; [17]) was 0, the “Plant response rating, Blackgrass” value (blackgrass [8]; [18]) was 5 and the “Barnyardgrass plant response rating” value (barnyardgrass [9]; [16]) was 0. The “Plant response rating (0 to 100), Barnyardgrass” value (barnyardgrass [9]; 125 g ai/ha, postemergence) was 5, the “Plant response rating, Barnyardgrass” value (barnyardgrass [9]; [17]) was 5 and the “Plant response rating, Barnyardgrass” value (barnyardgrass [9]; [18]) was 5. The “Oilseed Rape plant response rating” value (oilseed rape; [10]) was 80, the “Oilseed Rape plant response rating” value (oilseed rape; [11]) was 95 and the “Oilseed Rape plant response rating” value (oilseed rape; [12]) was 98. For the same compound, the “Plant response rating, Oilseed Rape” value (oilseed rape) was 80, the “Soybean plant response rating” value (soybean; [10]) was 30 and the “Soybean plant response rating” value (soybean; [11]) was 90. The “Soybean plant response rating” value (soybean; [12]) was 98, the “Plant response rating, Soybean” value (soybean) was 45 and the “Ragweed plant response rating” value (ragweed; [10]) was 40. The “Ragweed plant response rating” value (ragweed; [11]) was 75, the “Ragweed plant response rating” value (ragweed; [12]) was 100 and the “Plant response rating, Ragweed” value (ragweed) was 55. The “Plant response rating (0 to 100), Lambsquarters” value (lambsquarters; 125 g ai/ha, postemergence) was 55, the “Plant response rating, Lambsquarters” value (lambsquarters; [15]) was 30 and the “Plant response rating, Lambsquarters” value (lambsquarters; Postemergence, 62 g ai/ha) was 65.
With Clc1cnc(Oc2cccc(Br)c2-n2cc(Br)nn2)nc1 [Compound 129] the “Barnyardgrass plant response rating” value (barnyardgrass [1]; [10]) was 5, the “Barnyardgrass plant response rating” value (barnyardgrass [1]; [11]) was 40 and the “Barnyardgrass plant response rating” value (barnyardgrass [1]; [12]) was 90. For the same compound, the “Plant response rating, Barnyardgrass” value (barnyardgrass [1]) was 15, the “Morningglory plant response rating” value (morningglory; [10]) was 5 and the “Morningglory plant response rating” value (morningglory; [11]) was 45. For the same compound, the “Morningglory plant response rating” value (morningglory; [12]) was 75, the “Plant response rating, Morningglory” value (morningglory) was 35 and the “Blackgrass plant response rating” value (blackgrass [2]; [10]) was 0. For the same compound, the “Blackgrass plant response rating” value (blackgrass [2]; [11]) was 5, the “Blackgrass plant response rating” value (blackgrass [2]; [12]) was 90 and the “Plant response rating, Blackgrass” value (blackgrass [2]) was 50. The “Plant response rating, Foxtail, Giant” value (giant foxtail; [13]) was 100, the “Foxtail, Giant plant response rating” value (giant foxtail; [13]) was 100 and the “Waterhemp plant response rating” value (waterhemp [3]; [10]) was 100. For the same compound, the “Waterhemp plant response rating” value (waterhemp [3]; [11]) was 100, the “Waterhemp plant response rating” value (waterhemp [3]; [12]) was 100 and the “Plant response rating, Waterhemp” value (waterhemp [3]) was 100. The “Plant response rating (0 to 100), Waterhemp” value (waterhemp [4]; [19]) was 65, the “Plant response rating, Waterhemp” value (waterhemp [4]; [20]) was 85 and the “Plant response rating, Waterhemp” value (waterhemp [4]; Postemergence, 62 g ai/ha) was 65. For the same compound, the “Plant response rating, Barnyardgrass” value (barnyardgrass [5]; [13]) was 70, the “Barnyardgrass plant response rating” value (barnyardgrass [5]; [13]) was 90 and the “Plant response rating (0 to 100), Corn” value (corn [6]; [19]) was 5. The “Plant response rating, Corn” value (corn [6]; [21]) was 15, the “Plant response rating, Corn” value (corn [6]; [18]) was 10 and the “Plant response rating (0 to 100), Pigweed” value (pigweed; [19]) was 70. The “Plant response rating, Pigweed” value (pigweed; [20]) was 90, the “Plant response rating, Pigweed” value (pigweed; Postemergence, 62 g ai/ha) was 80 and the “Plant response rating (0 to 100), Ryegrass, Italian” value (Italian ryegrass; [19]) was 0. The “Plant response rating, Ryegrass, Italian” value (Italian ryegrass; [20]) was 5, the “Plant response rating, Ryegrass, Italian” value (Italian ryegrass; Postemergence, 62 g ai/ha) was 20 and the “Corn plant response rating” value (corn [7]; [10]) was 0. The “Corn plant response rating” value (corn [7]; [11]) was 5, the “Corn plant response rating” value (corn [7]; [12]) was 30 and the “Plant response rating, Corn” value (corn [7]) was 5. The “Plant response rating (0 to 100), Blackgrass” value (blackgrass [8]; [19]) was 5, the “Plant response rating, Blackgrass” value (blackgrass [8]; [21]) was 10 and the “Plant response rating, Blackgrass” value (blackgrass [8]; [17]) was 5. For the same compound, the “Plant response rating, Blackgrass” value (blackgrass [8]; [18]) was 5, the “Plant response rating (0 to 100), Barnyardgrass” value (barnyardgrass [9]; [19]) was 5 and the “Plant response rating, Barnyardgrass” value (barnyardgrass [9]; [21]) was 5. The “Plant response rating, Barnyardgrass” value (barnyardgrass [9]; [17]) was 5, the “Plant response rating, Barnyardgrass” value (barnyardgrass [9]; [18]) was 5 and the “Oilseed Rape plant response rating” value (oilseed rape; [10]) was 50. For the same compound, the “Oilseed Rape plant response rating” value (oilseed rape; [11]) was 100, the “Oilseed Rape plant response rating” value (oilseed rape; [12]) was 100 and the “Plant response rating, Oilseed Rape” value (oilseed rape) was 85. For the same compound, the “Soybean plant response rating” value (soybean; [10]) was 10, the “Soybean plant response rating” value (soybean; [11]) was 40 and the “Soybean plant response rating” value (soybean; [12]) was 80. The “Plant response rating, Soybean” value (soybean) was 10, the “Ragweed plant response rating” value (ragweed; [10]) was 0 and the “Ragweed plant response rating” value (ragweed; [11]) was 60. The “Ragweed plant response rating” value (ragweed; [12]) was 85, the “Plant response rating, Ragweed” value (ragweed) was 20 and the “Plant response rating (0 to 100), Lambsquarters” value (lambsquarters; [19]) was 35. The “Plant response rating, Lambsquarters” value (lambsquarters; [20]) was 85 and the “Plant response rating, Lambsquarters” value (lambsquarters; Postemergence, 62 g ai/ha) was 80.
